From patent publication US20110039906A1, “ANTIBACTERIAL COMBINATION THERAPY” (priority 2007, published 2011)
Converted amounts (≈) assume the structure as drawn. Read-outs that look alike come from different tables or passages of the source.

Key:
MRSA = details: literature evidence (Taylor et al., 1987); cited from earlier work
S. epidermidis 1228 = test: MIC by broth microdilution (experiment B); format: cell-based; details: Staphylococcus epidermidis, combination 1:1, value = mg/L total drug
Procedure: (§1) Minimum inhibitory concentrations (MICs) of a range of clinical and control bacterial organisms were measured according to BSAC (British Society for Antimicrobial Chemotherapy) guidelines (Andrews 2001), for single agents and combinations of agents, described briefly as follows. MICs were measured by agar dilution (Experiment A) and by broth microdilution (experiment B).
(§2) Stock solutions were prepared at concentrations of 1000 mg/L and 100 mg/L. The appropriate amounts of each stock solution were added to separate Petri dishes give a range of final concentrations (after the addition of 20 mL molten agar): from 0.12 to 32 mg/L. In experiment A, a 1:1 ratio of each agent was added to the appropriate Petri dish so that a 2 mg/L plate contained 2 mg/L of each agent. Volumes (20 mL) of cooled molten IST agar (oxoid) was added to each Petri dish and mixed by swirling. After drying, the plates were stored at 4° C. and protected from light. Plates were used on the day of preparation.
(§3) The test organisms were grown overnight in 5 mL IST broth. […] For the broth microdilution, each well of a microtitre plate was inoculated with diluted overnight culture to give a final inoculum of 5×10^5 cfu/mL. […]
(§4) The MIC is the minimum amount of an antibiotic at which there is no visible growth of bacteria. Tiny single colonies or faint hazes were not counted as growth.

VISA 3900 UK (VISA) = test: MIC by broth microdilution (experiment B); format: cell-based; details: Staphylococcus aureus, combination 1:1, value = mg/L total drug
Procedure: as §1, §2, §3, §4

USA/VISA 5836 (VISA) = test: MIC by broth microdilution (experiment B); format: cell-based; details: Staphylococcus aureus, combination 1:1, value = mg/L total drug
Procedure: as §1, §2, §3, §4

Mu50exJapan (VISA) = test: MIC by broth microdilution (experiment B); format: cell-based; details: Staphylococcus aureus, combination 1:1, value = mg/L total drug
Procedure: as §1, §2, §3, §4

USA/VISA) 5827 (VISA = test: MIC by broth microdilution (experiment B); format: cell-based; details: Staphylococcus aureus, combination 1:1, value = mg/L total drug
Procedure: as §1, §2, §3, §4

[1] = tested on: 25 different MRSA isolates and 5 VRE isolates; test: Pooled MIC testing (MIC50, MIC90, range); format: cell-based; details: 25 MRSA isolates and 5 VRE isolates
From the text: The MIC50 is the minimum inhibitory concentration required to inhibit the growth of 50% of the strains tested, and the MIC90, the concentration required to inhibit the growth of 90% of the strains tested.

Row | MIC (S. epidermidis 1228) [µg/mL] | MIC (VISA 3900 UK (VISA)) [µg/mL] | MIC (USA/VISA 5836 (VISA)) [µg/mL] | Compound | antibacterial activity against MRSA (MRSA) | other results
1 | – | – | – | CCN(CC)C(=S)S [DDTC, diethyldithiocarbamate] | some antibacterial activity | –
2 | – | – | – | CCN(CC)C(=S)SSC(=S)N(CC)CC [Disulfiram (ethanol), disulfiram] | some antibacterial activity | –
3 | 2 | 8 | 8 | Clc1ccc(COC(Cn2ccnc2)c2ccc(Cl)cc2Cl)cc1 (stereo not drawn) [Econazole, 1-[2-[(4-Chlorphenyl)methoxy]-2-(2,4-dichlorophenyl)ethyl]-1H-imidazole] | – | MIC (Mu50exJapan (VISA)): 8 µg/mL; MIC (USA/VISA) 5827 (VISA): 4 µg/mL
4 | 2 | 2 | 8 | Clc1ccc(COC(Cn2ccnc2)c2ccc(Cl)cc2Cl)c(Cl)c1 (stereo not drawn) [Miconazole, 1-[2-(2,4-Dichlorophenyl)-2-[(2,4-dichlorophenyl)methoxy]ethyl]-1H-imidazole] | – | Range of MICs [1]: 0.5 to 8 mg/L; MIC50 ([1]; concentration inhibiting growth of 50% of strains): 2 µg/mL (≈ 4.81 µM); MIC90 ([1]; concentration inhibiting growth of 90% of strains): 2 µg/mL (≈ 4.81 µM); MIC ([1]; read-out: highest MIC): 8 µg/mL (≈ 19.2 µM); MIC ([1]; read-out: lowest MIC): 0.5 µg/mL (≈ 1.2 µM)
